According to ChEMBL document CHEMBL2074335, “Cloning and functional characterization of the multidrug resistance-associated protein (MRP1/ABCC1) from the cynomolgus monkey” (Mol Cancer Ther, 2003):

Biological target: Multidrug resistance-associated protein 1 (Homo sapiens, UniProt P33527)
Test: TP_TRANSPORTER: drug resistance in MRP1-expressing PEAKSTABEL cells
Format: functional, cell-based
Conditions: peakstable

Chain of Multidrug resistance-associated protein 1 (P33527 whole entry): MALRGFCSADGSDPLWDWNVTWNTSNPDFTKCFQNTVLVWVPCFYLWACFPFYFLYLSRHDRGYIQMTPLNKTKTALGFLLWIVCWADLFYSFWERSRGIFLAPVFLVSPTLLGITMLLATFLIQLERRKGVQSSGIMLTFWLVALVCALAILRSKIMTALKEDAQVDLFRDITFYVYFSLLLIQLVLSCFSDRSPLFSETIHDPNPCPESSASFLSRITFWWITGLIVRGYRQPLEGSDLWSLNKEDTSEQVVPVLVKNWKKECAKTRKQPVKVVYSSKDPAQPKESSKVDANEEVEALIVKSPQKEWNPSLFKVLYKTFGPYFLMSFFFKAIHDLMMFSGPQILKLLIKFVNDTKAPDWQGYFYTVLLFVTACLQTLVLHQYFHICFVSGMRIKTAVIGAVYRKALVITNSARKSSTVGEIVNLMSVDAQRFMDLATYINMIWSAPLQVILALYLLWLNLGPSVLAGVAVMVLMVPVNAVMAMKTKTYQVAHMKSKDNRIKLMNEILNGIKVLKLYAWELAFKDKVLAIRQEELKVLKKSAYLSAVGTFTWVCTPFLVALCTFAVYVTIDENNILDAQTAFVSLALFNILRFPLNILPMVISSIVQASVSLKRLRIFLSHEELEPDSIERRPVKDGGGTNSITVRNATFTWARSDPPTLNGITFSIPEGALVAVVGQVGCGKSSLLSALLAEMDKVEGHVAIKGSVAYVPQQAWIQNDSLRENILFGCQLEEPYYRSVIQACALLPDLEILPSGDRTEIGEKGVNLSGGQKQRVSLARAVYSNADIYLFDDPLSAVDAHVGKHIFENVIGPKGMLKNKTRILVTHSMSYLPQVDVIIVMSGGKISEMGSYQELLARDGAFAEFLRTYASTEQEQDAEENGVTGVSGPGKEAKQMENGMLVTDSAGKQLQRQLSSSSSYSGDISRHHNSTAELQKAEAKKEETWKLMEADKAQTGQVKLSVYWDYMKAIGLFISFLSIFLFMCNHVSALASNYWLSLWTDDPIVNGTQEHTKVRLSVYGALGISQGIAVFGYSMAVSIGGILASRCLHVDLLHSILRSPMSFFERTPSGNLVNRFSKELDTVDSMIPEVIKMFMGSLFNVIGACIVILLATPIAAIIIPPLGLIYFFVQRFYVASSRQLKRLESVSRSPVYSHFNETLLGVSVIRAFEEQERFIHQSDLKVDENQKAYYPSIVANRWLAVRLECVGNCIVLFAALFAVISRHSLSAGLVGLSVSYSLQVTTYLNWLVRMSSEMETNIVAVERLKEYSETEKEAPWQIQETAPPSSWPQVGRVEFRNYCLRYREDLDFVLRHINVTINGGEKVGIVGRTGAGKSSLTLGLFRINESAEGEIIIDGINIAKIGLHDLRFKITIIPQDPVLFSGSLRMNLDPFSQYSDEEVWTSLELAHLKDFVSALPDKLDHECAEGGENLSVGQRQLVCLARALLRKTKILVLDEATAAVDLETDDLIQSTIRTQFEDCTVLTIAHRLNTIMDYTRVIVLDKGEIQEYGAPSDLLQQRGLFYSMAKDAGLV

Activity	Compound
inhibitor []	COc1cc(NC(=O)Cc2cccc(-n3c(=O)c4c(C)onc4c4c(Cl)cccc43)c2)cc(OC)c1OC
substrate []	COc1cccc2c1C(=O)c1c(O)c3c(c(O)c1C2=O)C[C@@](O)(C(=O)CO)C[C@@H]3O[C@H]1C[C@H](N)[C@@H](O)[C@H](C)O1 [EPIRUBICIN]
substrate []	COc1cccc2c1C(=O)c1c(O)c3c(c(O)c1C2=O)C[C@@](O)(C(=O)CO)C[C@@H]3O[C@H]1C[C@H](N)[C@H](O)[C@H](C)O1 [DOXORUBICIN]

Second part, the compound before the results:

Compound	Activity
COc1cc([C@@H]2c3cc4c(cc3[C@@H](O[C@@H]3O[C@@H]5CO[C@@H](C)O[C@H]5[C@H](O)[C@H]3O)[C@H]3COC(=O)[C@H]23)OCO4)cc(OC)c1O [ETOPOSIDE]	substrate []
CC[C@]1(O)C[C@H]2CN(CCc3c([nH]c4ccccc34)[C@@](C(=O)OC)(c3cc4c(cc3OC)N(C=O)[C@H]3[C@@](O)(C(=O)OC)[C@H](OC(C)=O)[C@]5(CC)C=CCN6CC[C@]43[C@@H]65)C2)C1 [VINCRISTINE]	substrate []
